Assays:
[1] = Cytotoxicity in mock-infected MT-4 cells (MTT); details: human
Procedure: (§1) A rapid, sensitive and automated assay procedure was used for the in vitro evaluation of anti-HIV agents. An […] T4-cell line, MT-4, which was previously shown (Koyanagi et al., Int. J. Cancer, 36, 445-451, 1985) to be highly susceptible to and permissive for HIV infection, served as the target cell line. Inhibition of the HIV-induced cytopathic effect was used as the end point. The viability of both HIV- and mock-infected cells was assessed spectrophotometrically via the in situ reduction of 3-(4,5-dimethylthiazol-2-yl)-2,5-diphenyltetrazolium bromide (MTT). The 50% cytotoxic concentration (CC50 in μM) was defined as the concentration of compound that reduced the absorbance of the mock-infected control sample by 50%. The percent protection achieved by the compound in HIV-infected cells was calculated by the following formula: [formula]
(§2) whereby (ODT)HIV is the optical density measured with a given concentration of the test compound in HIV-infected cells; (ODC)HIV is the optical density measured for the control untreated HIV-infected cells; (ODC)MOCK is the optical density measured for the control untreated mock-infected cells; all optical density values were determined at 540 nm. The dose achieving 50% protection according to the above formula was defined as the 50% inhibitory concentration (IC50 in μM). The ratio of CC50 to IC50 was defined as the selectivity index (SI).

HIV-1 = experiment: Inhibition of HIV-induced cytopathic effect in MT-4 cells (MTT); assay type: cell-based; details: dose achieving 50% protection of HIV-infected MT-4 cells, mean, number of experiments in brackets
Procedure: as §1, §2

mock-infected MT-4 cells = experiment: Cytotoxicity in mock-infected MT-4 cells (MTT)
Procedure: as §1, §2

[2] = Human immunodeficiency virus 1, MT4

Compound | CC50 ([1]; mock-infected MT-4 cells) [µM] | also measured
N#Cc1ccc(Nc2nc(Cc3c(Cl)cccc3Cl)nc(NCC(O)CO)n2)cc1 (racemic) [Compound 26, (±)-4-[[4-[(2,6-dichlorophenyl)methyl]-6-[(2,3-dihydroxypropyl)amino]-1,3,5-triazin-2-yl]amino]benzonitrile] | 59.7 | IC50 (HIV-1; [2]): 0.068 µM
CN(C)C=Nc1nc(Cc2c(Cl)cccc2Cl)nc(Nc2ccc(C#N)cc2)n1 [Compound 62, 4-[[4-[(2,6-dichlorophenyl)methyl]-6-[[(dimethylamino)methylene]amino]-1,3,5-triazin-2-yl]amino]benzonitrile] | > 100 | –
N#Cc1ccc(Nc2nc(Cc3c(Cl)cccc3Cl)nc(NCCCNC(N)=O)n2)cc1 [Compound 23, N-[3-[[4-[(4-cyanophenyl)amino]-6-[(2,6-dichlorophenyl)methyl]-1,3,5-triazin-2-yl]amino]propyl]urea] | 36.7 | –
N#Cc1ccc(Nc2nc(Cc3c(Cl)cccc3Cl)nc(NCC(=O)O)n2)cc1 [Compound 16, N-[4-[(4-cyanophenyl)amino]-6-[(2,6-dichlorophenyl)methyl]-1,3,5-triazin-2-yl]glycine] | 79.9 | –
N#Cc1ccc(Nc2nc(Cc3c(Cl)cccc3Cl)nc(NN)n2)cc1 [Compound 15, 4-[[4-[(2,6-dichlorophenyl)methyl]-6-hydrazino-1,3,5-triazin-2yl]amino]benzonitrile] | 44.6 | –
CCOc1cccc(Cc2nc(N)nc(Nc3ccc(C#N)cc3)n2)c1 [Compound 48] | – | CC50 (mock-infected MT-4 cells): > 20 µM; IC50 (HIV-1): 0.074 µM
CC(=O)Nc1nc(Cc2c(Cl)cccc2Cl)nc(Nc2ccc(C#N)cc2)n1 [Compound 22, N-[4-[(4-cyanophenyl)amino]-6-[(2,6-dichlorophenyl)methyl]-1,3,5-triazin-2-yl]-acetamide] | > 100 | –
N#Cc1ccc(Nc2nc(N)nc(Cc3c(Cl)ccc4[nH]ccc34)n2)cc1 [Compound 8, 4-[[4-amino-6-[(5-chloro-1H-indol-4-yl)methyl]-1,3,5-triazin-2-yl]amino]benzonitrile] | 14.4 | –
N#Cc1ccc(Nc2nc(N)nc(C(CC3CC3)c3c(Cl)cccc3Cl)n2)cc1 (racemic) [Compound 61] | – | CC50 (mock-infected MT-4 cells): 53.4 µM; IC50 (HIV-1): 6.9 µM
NC(=O)c1ccc(Nc2nc(N)nc(Cc3c(Cl)ccc4[nH]ccc34)n2)cc1 [Compound 9, 4-[[4-amino-6-[(5-chloro-1H-indol-4-yl)methyl]-1,3,5-triazin-2-yl]amino]benzamide] | 54.4 | –
N#Cc1ccc(Nc2nc(Cc3c(Cl)cccc3Cl)nc(NO)n2)cc1 [Compound 33, 4-[[4-[(2,6-dichlorophenyl)methyl]-6-(hydroxyamino)-1,3,5-triazin-2-yl]amino]benzonitrile] | 14.1 | –
N#Cc1ccc(Nc2nc(N)nc(Cc3c(Cl)cccc3Cl)n2)cc1 [Compound 1, 4-[[4-amino-6-[(2,6-dichlorophenyl)methyl]-1,3,5-triazin-2-yl]amino]benzonitrile] | > 100 | –
COc1cccc(Cc2nc(N)nc(Nc3ccc(C#N)cc3)n2)c1 [Compound 47] | – | CC50 (mock-infected MT-4 cells): > 20 µM; IC50 (HIV-1): 0.082 µM
CC(=N)Nc1nc(Cc2c(Cl)cccc2Cl)nc(Nc2ccc(C#N)cc2)n1 [Compound 28] | – | CC50 (mock-infected MT-4 cells): > 100 µM; IC50 (HIV-1): 0.003 µM
CN(C)CCNc1nc(Cc2c(Cl)cccc2Cl)nc(Nc2ccc(C#N)cc2)n1 [Compound 29] | – | IC50 (HIV-1): 0.05 µM
N#Cc1ccc(Nc2nc(Cc3c(Cl)cccc3Cl)nc(NCC(N)=O)n2)cc1 [Compound 14, [N-[4-[(4-cyanophenyl)amino]-6-[(2,6-dichlorophenyl)methyl]-1,3,5-triazin-2-yl]]aminoacetamide] | 9.1 | –
CC(C)NC(=O)Nc1nc(Cc2c(Cl)cccc2Cl)nc(Nc2ccc(C#N)cc2)n1 [Compound 6, N-[4-[(4-cyanophenyl)amino]-6-[(2,6-dichlorophenyl)methyl]-1,3,5-triazin-2-yl]-N′-(1-methylethyl)urea] | > 100 | –
N#Cc1ccc(Nc2nc(Cc3c(Cl)cccc3Cl)nc(NC(CCO)C(N)=O)n2)cc1 (racemic) [Compound 34, (±)-2-[[4-[(4-cyanophenyl)amino]-6-[(2,6-dichlorophenyl)amino]-6-[(2,6-dichlorophenyl)methyl]-1,3,5-triazin-2-yl]amino-4-hydroxybutanamide] | – | CC50 (mock-infected MT-4 cells): 42.3 µM; IC50 (HIV-1): 0.057 µM
CN(C)c1nc(Cc2c(Cl)cccc2Cl)nc(N(c2ccc(C#N)cc2)c2ccc(C#N)cc2)n1 [Compound 38, 4,4′-[[4-[(2,6-dichlorophenyl)methyl]-6-(dimethylamino)-1,3,5-triazin-2-yl]imino]bisbenzonitrile] | > 100 | –
N#Cc1ccc(Nc2nc(Cc3c(Cl)cccc3Cl)nc(NC(=N)N)n2)cc1 [Compound 20, N-[4-[(4-cyanophenyl)amino]-6-[(2,6-dichlorophenyl)methyl]-1,3,5-triazin-2-yl]-guanidine] | 4.3 | –
COC(=O)CN(c1ccc(C#N)cc1)c1nc(N)nc(Cc2c(Cl)cccc2Cl)n1 [Compound 39] | – | CC50 [1]: > 20 µM; IC50 (HIV-1; [2]): 0.078 µM
